Results published in patent US10213506B2, “Targeting immunotherapy for amyloidosis” (UNIVERSITY OF TENNESSEE RESEARCH FOUNDATION, priority 2014, dated 2019).

Key:
mAb clones = assay: Capture of biotinylated negative control peptides by adsorbed mAbs; format: binding, murine; conditions: 100 ng/well
Procedure: More particularly, 96-well ELISA microplates were coated overnight with the indicated mAbs (500 ng/well), the wells were blocked with PBS/BSA solution before addition of biotinylated p5+14 peptide (100 ng/well). Biotinylated peptides, p5R and p31G (aka p5G) were used as a negative control. Following a wash step, detection of captured peptide was achieved by addition of europium-conjugated streptavidin as described above.

human ATTR amyloid = biological target: T1, human ATTR amyloid (Homo sapiens, UniProt P02766); assay: Pre-targeting immunohistochemistry on ATTR-laden tissue sections; format: binding; conditions: biotinylated peptide without mAb; compared with Congo red
T1 construct: human ATTR-laden formalin-fixed paraffin embedded tissue sections; from tissue
Procedure: The pre-targeting efficacy of peptide p5+14 in conjunction with mAb clones 4, 5, 12, or 13 was further evaluated using human ATTR-laden formalin-fixed paraffin embedded tissue sections. More particularly, six micrometer-thick sections, cut from formalin-fixed, paraffin embedded human transthyretin (TTR) amyloid-laden tissue, were subjected to antigen retrieval by incubation with CitraPlus (BioGenex, San Ramon, Calif.) for 30 min at 90° C. Peptide p5+14 was added to the tissue at ˜3 μg/mL (30× molar excess over mAb) and incubated overnight at 4° C. Unbound reagent was removed by washing in PBST for 30 min. Tissues (with or without p5+14) were immunostained with a 3 μg/mL solution of biotinylated anti-peptide mAb (clones 4, 5, 12, or 13). Slides were developed by addition of streptavidin-HRP (Vectastain Elite ABC kit, Vector Labs) followed by 3,3′-diaminobezidene (Vector Labs).
By way of positive control, a biotinylated-p5+14 peptide (without mAb) was used to directly stain TTR amyloid in this tissue (red arrows, below), as described above.
To confirm the presence and distribution of amyloid in the tissue a consecutive slide was stained with Congo red. Briefly, tissues were incubated in Congo red solution (0.8% w/v Congo red, 0.2% KOH w/v in 80% ethanol) for 1 h at RT. Sections were then washed in water and counterstained by suspending in Mayer's hematoxylin for 2 min. […]

[1] = tested on: synthetic and naturally-occurring amyloid samples; assay: 125I-peptide pull-down assay; format: binding
Procedure: To evaluate the binding of p66 and p5+14 to synthetic and naturally-occurring amyloid, peptides p66 or p5+14 were radiolabeled with iodine-125 (I-125, ^125I) using oxidation with chloramine T (1 mg/ml in water freshly made. Free 1-125 was removed from the reaction mixture by size exclusion chromatography using a Sephadex G-25 solid phase and a 0.1% (w/v) gelatin in PBS mobile phase. Fractions of ˜250 μl were collected and the radioactivity in each measured using a gamma counter (Packard Cobra II auto-gamma counter). Peptide fractions with peak radioactivity were pooled and used for the “pull-down” assays.
For the pull down assay, ^125I-labeled peptide binding to murine: (m) AA and wild type (WT) liver homogenates (25 μl); rVλ6Wil (AL), Aβ(1-40) and islet amyloid polypeptide (IAPP) synthetic fibrils (25 μg), and; transthyretin-associated (ATTR), ALκ4-Cab and ALλ1-Ship human amyloid extracts (50 μg). The ^125I-peptides were prepared in PBST (0.15 M NaCl) or PBST with 1 M NaCl. Ten μl (˜5 ng, ˜100,000 counts per min [cpm]) of the ^125I-peptide solution was added to each test sample in a 200 μl volume. The reaction mixtures were rotated for 1 h at RT, then centrifuged twice at 16,000× g for 10 min. After each step the supernatants were removed and collected in test tubes. The pellets, obtained following the second spin were resuspended in PBST. The radioactivity in both the supernatant and pellet samples were measured using a Packard Cobra II auto-gamma counter. The bound peptide, expressed as % total was calculated according to: Bound peptide(% total)=(Pellet cpm)/(Pellet cpm+Supernatant cpm)

AA amyloid = assay: In vivo pre-targeting of 125I-11-1F4 to systemic AA amyloid; conditions: AA mice, ~400 μg unlabeled peptide, 24 h post injection of 11-1F4
Procedure: (§1) Systemic visceral AA amyloidosis was induced in H2-L^d-huIL-6 Tg Balb/c transgenic mice that constitutively express the human interleukin-6 transgene, by iv injection of 10 μg of purified, splenic AA amyloid (amyloid enhancing factor; AEF) in 100 μL of sterile phosphate-buffered saline (PBS). Peptide p66 pre-targeting of ^125I-11-1F4 was evaluated in mice at 3-4 wk post AEF injection when amyloid load was modest.
(§2) Three cohorts of 3 mice, each received ˜400 μg of unlabeled peptide p66, and a second group of 3 cohorts were given peptide p5+14 as a control. Twenty-four hours after the peptide injection all mice were administered ˜150 μCi (˜20 μg) of ^125I-11-1F4 IV in the lateral tail vein. One group of p66 mice (n=3) and one group of p5+14 control mice (n=3) were euthanized at 24, 48 and 72 h post injection of 11-1F4 mAb and the organs harvested at necropsy for fixation, followed by microautoradiographic and immunohistochemical analyses.
For autoradiography, 6-μm-thick sections were cut from formalin-fixed, paraffin-embedded blocks, containing tissues from mice that had received ^125I-p66. The sections were placed on Plus microscope slides (Fisher Scientific), dipped in NTB-2 emulsion (Eastman Kodak), stored in the dark, and developed after a 4 day exposure. Each section was counterstained with hematoxylin and eosin. […]

liver macrophages = assay: Liver macrophage staining (Iba-1) after in vivo pre-targeting; conditions: AA mice pre-injected with the peptide, 72 h post injection of 11-1F4 mAb
Procedure: as §1, §2
The presence of macrophages was detected by staining with mAb Iba-1 (1:8000 diln) followed by addition of biotinylated rabbit anti-mouse secondary reagent (Vector Rabbit Elite kit). The slides were developed, as described above. All tissue sections were examined using a Leica DM500 light microscope fitted with cross-polarizing filters (for Congo red). Digital microscopic images were acquired using a cooled CCD camera (SPOT; Diagnostic Instruments).

BSA-blocked wells = BSA-blocked wells (Bos taurus, UniProt P02769); assay: p66 and 11-1F4 on BSA-blocked wells without fibrils; format: binding; conditions: no fibrils
Sequence of BSA-blocked wells (P02769 25-607): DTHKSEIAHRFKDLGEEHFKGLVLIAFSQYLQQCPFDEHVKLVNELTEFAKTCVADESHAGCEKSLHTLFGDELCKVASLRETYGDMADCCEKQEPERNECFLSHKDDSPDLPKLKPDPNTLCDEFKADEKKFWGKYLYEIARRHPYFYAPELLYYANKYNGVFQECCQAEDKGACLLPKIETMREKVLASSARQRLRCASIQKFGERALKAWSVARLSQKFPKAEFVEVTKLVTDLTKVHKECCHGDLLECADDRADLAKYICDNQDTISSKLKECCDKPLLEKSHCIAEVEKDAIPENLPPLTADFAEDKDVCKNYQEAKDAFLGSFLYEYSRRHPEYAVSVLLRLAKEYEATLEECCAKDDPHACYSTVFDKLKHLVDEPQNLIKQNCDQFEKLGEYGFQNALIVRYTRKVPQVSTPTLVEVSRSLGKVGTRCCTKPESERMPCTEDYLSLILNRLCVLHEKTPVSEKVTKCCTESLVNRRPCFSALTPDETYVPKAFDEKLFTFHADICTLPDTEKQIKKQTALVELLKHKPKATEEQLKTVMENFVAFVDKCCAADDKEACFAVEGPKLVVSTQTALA

AA amyloid deposits = assay: In vivo binding of 125I-p66 in mice with systemic AA amyloidosis
Procedure: as §1, with “p66” for “p66 pre-targeting of ^125I-11-1F4”, “4-6” for “3-4”, “significant.” for “modest.”
(§3) Imaging was performed using WT or AA amyloid mice (n=3) that were injected with ˜5 μg of ^125I-p66, 125 μCi in the lateral tail vein. After the appropriate uptake time (data for 4 and 72 h pi shown), mice were euthanized by isoflurane inhalation overdose. SPECT images were acquired using an Inveon trimodality imaging platform (Siemens Preclinical Solution, Knoxville, Tenn.) running Inveon Acquisition Workplace software (ver. 2.0). Low energy (^125I; 25-45 keV) gamma photons were acquired at each of 60, 16-sec projections with 90 mm of bed travel. A 1 mm-diameter, 5-pinhole (Mouse Whole Body) collimator was used at 30 mm from the center of the field of view. Data were reconstructed post hoc onto an 88×88×312 matrix with isotropic 0.50 mm voxels using a 3D ordered subset expectation maximization (OSEM) algorithm (8 iterations; 6 subsets).
CT data were acquired using an x-ray voltage biased to 80 kVp with a […] anode current, with 4×4 binning. A 225 msec exposure was used, and 360, 1-degree projections were collected. The data were reconstructed using an implementation of the Feldkamp filtered back-projection algorithm onto a 512×512×1296 matrix with isotropic 0.106 mm voxels. […]
(§4) Samples of liver, spleen, pancreas, kidneys, small and large intestines, stomach and heart were harvested post mortem from every mouse undergoing imaging with ^125I-p66. A sample of each was placed into a tared, plastic vial, weighed and the ^125I radioactivity measured using an automated Wizard 3 gamma counter (1480 Wallac Gamma Counter, Perkin Elmer). The biodistribution data were expressed as % injected dose/g tissue (% ID/g). […]

[2] = In vivo binding of 125I-p66 in healthy WT mice; conditions: 125I-labelled peptide iv
Procedure: as §3
as §4, with “ID/g). In addition, samples of each tissue were fixed in 10% buffered-formalin for 24 h and embedded in paraffin for autoradiography.” for “ID/g).”

| Direct staining of ATTR amyloid by biotinylated peptide (human ATTR amyloid) | Binding of 125I-peptide to amyloid samples (pull-down) ([1]; 0.15 M NaCl) | Binding of 125I-peptide to amyloid samples (pull-down) ([1]; 1.0 M NaCl) | Peptide binding to BSA-blocked wells in the absence of fibrils (BSA-blocked wells) | Substance | Capture of biotinylated peptide by adsorbed mAb clones (mAb clones) | Peptide associated with AA amyloid in tissues (immunohistochemistry with clone 12-3) (AA amyloid) | Liver macrophage infiltration (Iba-1 staining) (liver macrophages) | Binding to amyloid deposits in vivo (micro-autoradiography vs Congo red) (AA amyloid deposits; 125I-labelled peptide iv, mice with systemic AA amyloidosis) | Reactivity with amyloid in vivo, notably liver, spleen, pancreas and intestines (SPECT/CT imaging and tissue biodistribution) (AA amyloid deposits; 125I-labelled peptide, AA mice) | Time post injection at which liver amyloid could be visualized by SPECT imaging (AA amyloid deposits; 125I-labelled peptide, AA mice) | Binding to healthy tissues in vivo (micro-autoradiography) [2] |
| --- | --- | --- | --- | --- | --- | --- | --- | --- | --- | --- | --- |
|  |  |  |  | p5G: SEQ ID NO: 3: GAQGAQAGQAGQAQGAQGAQAGQAGQ (GAQGAQAGQAGQAQGAQGAQAGQAGQ; Peptide p5G) | not captured |  |  |  |  |  |  |
| co-localizes with amyloid deposits | bound equally well | bound equally well |  | p5+14: SEQ ID NO: 17: KAQKAQAKQAKQAQKAQKAQAKQAKQAQKAQKAQAKQAKQ (KAQKAQAKQAKQAQKAQKAQAKQAKQAQKAQKAQAKQAKQ; Peptide p5+14) |  | p5+14-coated AA amyloid in all tissues evaluated | induced macrophage infiltration |  |  |  |  |
|  |  |  |  | p5R: SEQ ID NO: 2: RAQRAQARQARQAQRAQRAQARQARQ (RAQRAQARQARQAQRAQRAQARQARQ; Peptide p5R) | not captured |  |  |  |  |  |  |
|  | bound equally well | bound equally well | no peptide bound | p66: SEQ ID NO: 18: p5+14 fused via linker SVTVVT to 11-1F4 12-mer epitope KHYAAFPENLLI (KAQKAQAKQAKQAQKAQKAQAKQAKQAQKAQKAQAKQAKQSVTVVTKHYAAFPENLLI; Fusion protein between p66 and antibody epitope sequence 11-1F4) |  | associated specifically with AA amyloid | induced macrophage infiltration into the liver and clustering of macrophages around amyloid deposits to a greater degree | specifically bound the amyloid deposits | confirmed | at least 72 h | did not bind to any tissue |
